Data: patent publication US6417235B2, “Method and use of α-amino-β-mercapto-ethane derivatives as dicarbonyl scavengers for treatment of conditions resulting from protein, lipid, and DNA damage” (University of Kentucky Research Foundation, priority 2000, dated 2002)

Tests used:
[1] = system: glycation of histone H1 by ADP-ribose; assay: Screening of inhibitors of nonoxidative advanced glycation: AGE-fluorescence on 96 well-microtiter plate; format: biochemical, calf; details: (± SEM, n = 2); for AGE-fluorescence (day 5): complete reaction under air
Method: All operations were carried out at 4° C. Chromatin was isolated from fresh calf thymus by extraction with 0.14 M NaCl, 0.05 M Na2S2O5, as described earlier in Wondrak supra. After repeated extraction with 5% HCl)4 and centrifugation (1500 g), histone H1 was precipitated from the supernatant by addition of TCA (20% final concentration v/v). The histone H1 precipitate was colleted by centrifugation (12,000 g) and deionized water. After extensive dialysis (MW cut-off: 12,000-14,000) against water for 48 h, the sample was lyophilized and the protein was stored at 4° C. SDS-PAGE (12%) was used to analyze the purity of the preparation.
Earlier studies have reported that D-penicillamine inhibits collagen crosslinking and AGE fluorescence caused by sugars (McPherson, J. D., Shilton, B. H., and Walton, D. J. 1988. Role of Fructose in Glycation and Cross-Linking of Proteins. Biochemistry 27, 1901-1907) and reaction of D-penicillamine with aldehyde groups of proteins (Deshmukh, K., and Nimm, M. E. 1969. A Defect in the Intramolecular and Intermolecular Cross-linking of Collagen caused by Penicillamine. J. Biol. Chem. 244, 1787-1795). A number of different penicillamines and penicillamine derivatives were tested to determine the inhibition of AGE-fluorescence on histone H1 at physiological pH. The reaction conditions for the glycation of histone H1 by ADP-ribose mimic physiological conditions to the extent possible. Reaction mixtures contain 1.5 mg/ml histone Hl, 1.0 mM ADP-ribose, 50 mM potassium phosphate buffer, pH 7.4, 37° C. D,L-penicillamine; L-penicillamine; D-penicllamine; D-penicillaminedisulfide and N,S- isopropylidine-D-penicillamine were tested in concentrations of 1,5 and 10 mM. The detected reaction parameter representing the accumulation of protein damage is AGE-fluorescence ((λex=[…]), which is suppressed by the presence of a compound with inhibitory activity. Generation of AGE-type fluorescence (λex=355 nm; λem=405 nm) was monitored over time at 37° C; which is in the range of the broad excitation/emission maxima of AGE compounds. To allow high throughput sample processing on 96 well microtiter plates, the reaction volumes are 300 μl. Fluorescence on the 96-well microtiter plates was measured using an automated microtiter fluorescence reader. Fluorescence of the 1 ml samples of the glycation reaction mixtures was measured using a Hitachi F-200 fluorescence spectophotometer, and prior to measurement the protein sample is dialyzed extensively against water (MW cutoff=[…]), lyophilized and reconstituted in reaction buffer. For inhibitor screening the plate is read on a Fluoroskan II plate reader (Titertek, ICN) at the excitation/emission wavelengths set forth above at a bandwidth of 35 nm.
The following screening scheme is used (see Table 1): AGE-fluorescence is determined at the beginning and after five days of incubation. Test compounds that are inherently fluorescent (designated false negatives) were identified by the initial fluorescence measurement (See Table 1, NADH for example). Since these are compounds of uncertain activity, they are diverted directly to the second stage of the screen. Aminoguanidine, a known glycation inhibitory agent, was used as a positive control for suppression of the increase on AGE-fluorescence. After five days incubation and plate reading, fluorescence quenchers (designated false positives) are excluded by measuring the quenching activity of the test compound by addition of AGE modified protein having known fluorescence activity to one microtiter plate well containing test compound in the complete reaction mixture. For this, AGE-BSA is used as the AGE-type fluorescence standard. This AGE-BSA test excludes false positives compounds that function by fluorescence quenching. If fluorescence quenching occurs the test compound is excluded from further screening. […] The protein is visualized by silver staining of the gel. […]

ΦX-174 DNA = assay: AGE-BSA photosensitized cleavage of ΦX-174 DNA under solar simulated light; format: biochemical; details: for effect on AGE-BSA photosensitized DNA cleavage: solar simulated light, AGE-BSA as photosensitizer; for photosensitizing activity (DNA nicking): SSL 0.8-16 J/cm^2
Method: Glycated Proteins as Photosensitizers of DNA Damage in Skin Photoaging. D-Penicillamine inhibits genotoxic consequences of AGE-photosensitization. Accumulation of AGEs on dermal elastin and collagen occurs during normal skin aging in humans. The hypothesis was tested that the intra- and extracellular accumulation of the complex yellow-brown AGE-chromophores contributes to skin aging and carcinogenesis induced by chronic exposure to sunlight. As a possible molecular mechanisms for a detrimental synergism of AGE-formation and exposure to sunlight, photosensitized DNA damage by AGEs was assessed in a simple in vitro system. Irradiation of covalently closed circular ΦX-174 DNA with increasing doses of solar simulated light (SSL) in the presence of AGE-BSA was used to detect photosensitized DNA nicking as a measure of DNA photodamage (panel A). […] Addition of several antioxidants modulated the photosensitization effect (panel C).

HaCat keratinocytes = assay: AGE-photosensitization of human skin cells, growth inhibition under solar simulated light
Method: Human HaCat keratinocytes growing on 35 mm dishes were exposed to solar simulated light (1.2 kJ/m^2 UVB and 23 kJ/m^2 UVA) in the presence or absence of AGE-BSA as a model of a protein with advanced glycation endproducts. Control populations were treated in exactly the same way as described above, but were not exposed to solar simulated light (SSL).

Compound | AGE-fluorescence (day 0) ([1]; compound 5 mM) | AGE-fluorescence (day 5) ([1]; compound 5 mM) | AGE-fluorescence (day 0) ([1]; compound 1 mM) | AGE-fluorescence (day 5) ([1]; compound 1 mM) | AGE-fluorescence (day 0) ([1]; compound 10 mM) | AGE-fluorescence (day 5) ([1]; compound 10 mM) | effect on AGE-BSA photosensitized DNA cleavage (ΦX-174 DNA) | photosensitizing activity (DNA nicking) (ΦX-174 DNA) | increase in growth inhibition as compared to SSL alone (HaCat keratinocytes; 10 mg/mL AGE-BSA with SSL) | growth inhibition (HaCat keratinocytes; 10 mg/mL AGE-BSA with SSL (1.2 kJ/m^2 UVB and 23 kJ/m^2 UVA))
NC(=O)C1=CN([C@@H]2O[C@H](COP(=O)(O)OP(=O)(O)OC[C@H]3O[C@@H](n4cnc5c(N)ncnc54)[C@H](O)[C@@H]3O)[C@@H](O)[C@H]2O)C=CC1 [NADH] | 52 (0.3) relative units | 31 (0.0) relative units |  |  |  |  |  |  |  | 
N[C@@H](CCC(=O)N[C@@H](CS)C(=O)NCC(=O)O)C(=O)O [GSH, glutathione] | 1.1 (0.3) relative units | 17 (0.3) relative units | 1.3 (0.0) relative units | 19 (0.3) relative units | 1.1 (0.0) relative units | 14 (0.5) relative units |  |  |  | 
CC(=O)N[C@@H](CS)C(=O)O [NAC] | 1.0 (0.1) relative units | 10 (0.4) relative units | 1.2 (0.2) relative units | 11 (0.6) relative units | 1.1 (0.1) relative units | 9.4 (0.6) relative units |  |  |  | 
C[N+](C)(C)[C@@H](Cc1c[nH]c(=S)[nH]1)C(=O)[O-] [L-Ergothioneine] | 1.2 (0.0) relative units | 9.3 (0.2) relative units | 1.0 (0.1) relative units | 13 (0.0) relative units | 1.2 (0.1) relative units | 7.4 (0.1) relative units |  |  |  | 
[N-]=[N+]=[N-].[Na+] [NaN3] |  |  |  |  |  |  | blocked the photosensitized DNA cleavage |  |  | 
catalase |  |  |  |  |  |  | not effective |  |  | 
Unmodified BSA: unmodified bovine serum albumin |  |  |  |  |  |  |  | no such photosensitizing activity |  | 
COC(=O)[C@@H](N)CS [L-Cys-OMe] | 1.3 (0.1) relative units | 12 (0.8) relative units | 1.2 (0.1) relative units | 15 (0.1) relative units | 1.2 (0.1) relative units | 9.0 (0.2) relative units |  |  |  | 
NCCS [Cysteamine] | 1.1 (0.1) relative units | 9.0 (0.7) relative units | 1.0 (0.1) relative units | 10 (0.6) relative units | 1.2 (0.2) relative units | 6.0 (0.3) relative units |  |  |  | 
AGE-BSA: Glycosylated Bovine Serum Albumin, BSA incubated with D-glucose for 90 days at 37° C. |  |  |  |  |  |  |  | the damage was concentration dependent | 4 fold | 80%
N[C@@H](CS)C(=O)O [L-Cys] | 1.1 (0.1) relative units | 11 (0.2) relative units | 1.2 (0.1) relative units | 14 (0.3) relative units | 1.2 (0.1) relative units | 9.0 (0.2) relative units |  |  |  | 
L-Cys-Gly | 1.2 (0.2) relative units | 26 (0.4) relative units | 1.3 (0.3) relative units | 17 (0.0) relative units | 1.2 (0.1) relative units | 40 (0.0) relative units |  |  |  | 
O=C1CC(=O)NC(=S)N1 [2-Thiobarbituric acid] | 1.2 (0.1) relative units | 5.3 (0.4) relative units | 1.1 (0.1) relative units | 12 (0.4) relative units | 1.3 (0.1) relative units | 2.3 (0.0) relative units |  |  |  | 
CC(C)(S)C(N)C(=O)O (racemic) [D,L-Penicillamine] | 1.1 (0.1) relative units | 2.7 (0.0) relative units | 1.1 (0.2) relative units | 13 (0.0) relative units | 1.1 (0.1) relative units | 1.7 (0.0) relative units |  |  |  | 
NC(CCS)C(=O)O (racemic) [D,L-Homocysteine] | 1.2 (0.2) relative units | 22 (0.1) relative units | 1.3 (0.0) relative units | 16 (1.1) relative units | 1.1 (0.1) relative units | 27 (1.7) relative units |  |  |  | 
OC[C@@H](O)[C@@H](O)[C@H](O)[C@H](O)CO [Mannitol] |  |  |  |  |  |  | blocked the photosensitized DNA cleavage |  |  | 
